Results published in patent US8916604B2, “Compositions and methods for epigenetic modification of nucleic acid sequences” (Rutgers, The State University of New Jersey, priority 2011, dated 2014).

What was measured:
[1] = tested on: antioxidant response element (ARE); assay: ARE-luciferase reporter assay with combination index calculation; format: cell-based, human
Experimental: The stably transfected single clone HepG2-ARE-C8 (HepG2-C8) cell line has been established previously in our laboratory using the […]-luciferase reporter gene. The cells were maintained in Dulbecco's modified Eagle medium supplemented with 10% fetal bovine serum (FBS), 1.17 g/l sodium bicarbonate, and 100 unit/ml penicillin, 100 μg/ml streptomycin at 37° C. in a humidified incubator with 5% CO2. The HepG2-C8 cells were cultured in 12-well plates and each well contained 1 million cells in 1 ml of 10% FRS medium. The cells were treated with compounds for 24 h. The luciferase activity was determined using a luciferase kit from Promega (Madison, USA) according to the manufacturer's instructions. Briefly, after treatments for 24 h, the cells were washed twice with ice-cold phosphate buffered-saline (PBS, pH 7.4) and harvested in 1× reporter lysis buffer and […]. After centrifugation at 4° C., 12000 rpm for 5 min, a 10 μl aliquot of the supernatant was assayed for luciferase activity with a Sirius luminometer (Berthold Detection System GmbH, Pforzheim, Germany). The luciferase activity was normalized against protein concentration, determined by a BCA protein assay (Pierce, Rockford, USA), and expressed as the fold induction over the luciferase activity of control vehicle-treated cells. At least two to three independent studies were conducted in triplicates. To determine the synergistic effect between the combination of two different compounds, the combination index (CI) was calculated with the following formula: […] This approach is based on the Loewe additivity model and although the exact mechanism of interaction may be unknown, this model is one of the most commonly used reference models for evaluating potential drug-drug interactions Lee et al., J Biopharm Stat 2007; 17: 461-480).

HO-1 = assay: qPCR mRNA expression in HepG2-C8 cells; format: cell-based, human; details: 25 μM, 6 h, vs 0.1% DMSO
Experimental: (§1) The cells were treated similarly to the NITS and ARE-luciferase assays described above using 10% FBS medium. The incubation of the compounds with the cells was terminated 6 h later. The mRNA expression was evaluated utilizing a quantitative real-time polymerase chain reaction (qPCR). An RNeasy kit from Qiagen was used for RNA extraction (Valencia, Calif.). The total RNA was reverse-transcribed to cDNA by TaqMan Reverse Transcription Reagents (Applied Biosystems Inc, Foster City, Calif.). SYBR Green (Applied Biosystems Inc, Foster City, Calif.) fluorescence was used to measure the product of qPCR. Glyceraldehyde 3-phosphate dehydrogenase (GAPDH) was used as the housekeeping gene, and the Applied Biosystems 7900HT Fast Real-Time PCR System (Applied Biosystems Inc, Foster City, Calif.) was used as described previously (Saw et al., Biochem Pharmacol 2010; 79: 421-430) to detect quantitatively the induction of mRNA of Nrf2, phase II DME GSTm2, NAD (P)H dehydrogenase, quinone 1 (NQO1), UGT family, polypeptide A1 (UGT1A1) and antioxidant enzymes HO-1, superoxide dismutase 1 (SOD1). The primer pairs were designed using the Primer Quest Oligo Design and Analysis Tool by Integrated DNA Technologies Inc. (Coralville, Iowa, USA) and the sequences are listed in Table 4. At least four wells of each treatment were performed and duplicate samples were carried out for each treatment.

Nrf2 = assay: qPCR mRNA expression in HepG2-C8 cells; format: cell-based, human; details: 25 μM, 6 h, vs 0.1% DMSO
Experimental: as §1

[2] = Overall health and toxicity of TRAMP mice on DIM diet; format: in vivo
Experimental: DIM was obtained from Sigma-Aldrich (St. Louis, Mo., U.S.A.). MN-76A diets containing 1% DIM were prepared by Research Diets Inc. (New Brunswick, N.J., U.S.A.) and stored at −20° C. The dose was chosen based in part on studies reported previously Anderton et al., Drug Metab Dispos. 2004; 32: 632-8; and Xue et al., J Nutr Biochem. 2008; 19: 336-44). In our present study, 1% DIM was well-tolerated with these TRAMP mice. The control TRAMP males (n=19) received A1N-76A diets throughout the experiment while the treated TRAMP males received 1% DIM diet starting from eight weeks of age (n=9) as Group 1 (D-G1) and Group 2 (D-G2) starting from twelve weeks of age (n=8) (FIG. 12A). Fresh diets were added to the cages twice weekly.
TRAMP males were weighed weekly and the overall health of the animals was monitored on a regular basis. All mice were sacrificed at the age of 24 weeks by carbon dioxide euthanasia and the genitourinary apparatus (GU) consisting of the seminal vesicles, prostate, and bladder were isolated for further analyses (FIG. 12B).
The overall health of all the mice was monitored during the study period and found to be in good health. All mice were weighed and checked weekly during the course of this study.

PCNA = assay: IHC staining of TRAMP prostate tissue, cell proliferation; format: in vivo, mouse; details: D-G1 (16 weeks) or D-G2 (12 weeks) vs control
Experimental: Sections (4 μm) were cut from the paraffin embedded prostate tissue and mounted on glass slides. The slides Were deparafinized in xylene and antigen unmasking was performed by applying proteinase K digestion directly on the slides for 15 min. Endogenous peroxidase was blocked by incubating in 3% […] for 5 min, and ApopTag Plus Peroxidase In Situ Apoptosis Detection Kit (Millipore, Temecula, Calif., U.S.A.) was used to detect apoptotic cells. For detection of proliferative cells, monoclonal mouse anti-proliferating cell nuclear antigen (PCNA) antibody (Clone PC10, 1:50, Dako North America, Carpinteria, Calif., U.S.A.) was used (12). The staining was performed following as the manufacturer's protocols. Anti-5-methylcytosine (5-MC) mouse monoclone antibody (Clone 162 33 D3, 1:50, EMD Chemicals, Philadelphia, Pa., U.S.A.) was used to detect genome-wide methylated DNA. […] Quantitation of IHC staining was done using the Aperio ScanScope® GL system according to the manufactures protocol (Aperio Technologies Inc., Vista, Calif., U.S.A.). […] The Aperio ImageScopoe software (v 10.1.3.2028) allowed the unbiased quantification and quantitative analysis of the IHC staining of biomarkers of prostate tumor samples obtained from untreated control versus the treated TRAMP mice.

c1ccc2c(Cc3c[nH]c4ccccc34)c[nH]c2c1 [DIM, 3,3′-diindolylmethane]
induction of ARE-luciferase ([1]; 75 μM, 24 h, compared with any other treatment (p<0.05)): strongly induced
induction of ARE-luciferase ([1]; doses lower than 25 μM, 10% FBS medium (data not shown)): no significant induction
HO-1 mRNA induction over control (HO-1): ~3 fold
Nrf2 mRNA induction over control (Nrf2): ~3 fold
weights of liver, kidney and spleen ([2]; 1% DIM diet, at sacrifice): no significant change
body weights ([2]; 1% DIM diet, throughout the study period): No significant change
signs of toxicity ([2]; mouse, in vivo): no specific observable sign of toxicity
tolerability ([2]; mouse, in vivo): well-tolerated
PCNA staining (cell proliferation) (PCNA): significantly lower levels
